Activity calls are given as the source filed them. The calls are words filed in the database; no cut-off is given here.
Experiments:
Mus musculus [1] = test: Protective activity against hearing loss in streptozotocin-induced diabetic ICR mouse assessed as decrease in positive A peak latency at 20 mg/kg, po administered QD measured after 8 weeks by auditory middle latency response test; assay type: functional, organism-based; design: dose 20 mg/kg
Mus musculus [2] = test: Protective activity against hearing loss in streptozotocin-induced diabetic ICR mouse using 8 KHz tone bursts at 20 mg/kg, po administered QD measured after 8 weeks by auditory brainstem response test; assay type: functional, organism-based; design: dose 20 mg/kg
Mus musculus [3] = test: Antidiabetic activity in streptozotocin-induced diabetic ICR mouse assessed as change in body weight at 20 mg/kg, po administered QD measured 1 week after STZ challenge (reference value: 33.25 +/- 0.75 g); assay type: functional
Mus musculus [4] = test: Protective activity against hearing loss in streptozotocin-induced diabetic ICR mouse assessed as decrease in positive A peak latency at 10 mg/kg, po administered QD measured after 8 weeks by auditory middle latency response test; assay type: functional, organism-based; design: dose 10 mg/kg
Mus musculus [5] = test: Protective activity against hearing loss in streptozotocin-induced diabetic ICR mouse assessed as increase in negative A peak-positive A peak amplitude at 10 mg/kg, po administered QD measured after 8 weeks by auditory middle latency response test; assay type: functional, organism-based; design: dose 10 mg/kg
Mus musculus [6] = test: Antidiabetic activity in streptozotocin-induced diabetic ICR mouse assessed as change in blood glucose level at 20 mg/kg, po administered QD measured 9 weeks after STZ challenge (reference value: 529.90 +/- 49.17 mg/dl); assay type: functional
Mus musculus [7] = test: Protective activity against hearing loss in streptozotocin-induced diabetic ICR mouse assessed as increase in negative A peak-positive A peak amplitude at 20 mg/kg, po administered QD measured after 8 weeks by auditory middle latency response test; assay type: functional, organism-based; design: dose 20 mg/kg
Mus musculus [8] = test: Antidiabetic activity in streptozotocin-induced diabetic ICR mouse assessed as change in blood glucose level at 10 mg/kg, po administered QD measured 9 weeks after STZ challenge (reference value: 529.90 +/- 49.17 mg/dl); assay type: functional
Mus musculus [9] = test: Protective activity against hearing loss in streptozotocin-induced diabetic ICR mouse assessed as increase in signal intensity-to-noise ratio at 20 mg/kg, po administered QD measured after 8 weeks by transient evoked otoacoustic emission test; assay type: functional, organism-based; design: dose 20 mg/kg
Mus musculus [10] = test: Antidiabetic activity in streptozotocin-induced diabetic ICR mouse assessed as change in blood glucose level at 10 mg/kg, po administered QD measured 1 week after STZ challenge (reference value: 516.33 +/- 46.73 mg/dl); assay type: functional
Mus musculus [11] = test: Protective activity against hearing loss in streptozotocin-induced diabetic ICR mouse using 4 KHz tone bursts at 20 mg/kg, po administered QD measured after 8 weeks by auditory brainstem response test; assay type: functional, organism-based; design: dose 20 mg/kg
Mus musculus [12] = test: Antidiabetic activity in streptozotocin-induced diabetic ICR mouse assessed as change in blood glucose level at 20 mg/kg, po administered QD measured 1 week after STZ challenge (reference value: 516.33 +/- 46.73 mg/dl); assay type: functional
Mus musculus [13] = test: Protective activity against hearing loss in streptozotocin-induced diabetic ICR mouse using 8 KHz tone bursts at 10 mg/kg, po administered QD measured after 8 weeks by auditory brainstem response test; assay type: functional, organism-based; design: dose 10 mg/kg
Mus musculus [14] = test: Protective activity against hearing loss in streptozotocin-induced diabetic ICR mouse assessed as increase in signal intensity-to-noise ratio at 10 mg/kg, po administered QD measured after 8 weeks by transient evoked otoacoustic emission test; assay type: functional, organism-based; design: dose 10 mg/kg
Mus musculus [15] = test: Antidiabetic activity in streptozotocin-induced diabetic ICR mouse assessed as change in body weight at 10 mg/kg, po administered QD measured 1 week after STZ challenge (reference value: 33.25 +/- 0.75 g); assay type: functional
Mus musculus [16] = test: Antidiabetic activity in streptozotocin-induced diabetic ICR mouse assessed as change in body weight at 20 mg/kg, po administered QD measured 9 weeks after STZ challenge (reference value: 34.15 +/- 1.16 g); assay type: functional
Mus musculus [17] = test: Antidiabetic activity in streptozotocin-induced diabetic ICR mouse assessed as change in body weight at 10 mg/kg, po administered QD measured 9 weeks after STZ challenge (reference value: 34.15 +/- 1.16 g); assay type: functional
Mus musculus [18] = test: Protective activity against hearing loss in streptozotocin-induced diabetic ICR mouse using 4 KHz tone bursts at 10 mg/kg, po administered QD measured after 8 weeks by auditory brainstem response test; assay type: functional, organism-based; design: dose 10 mg/kg
[19] = Oral bioavailability in rat; assay type: ADME, organism-based; details: in vivo
[20] = Lipophilicity, log P of the compound; assay type: physicochemical; details: octanol/water

| SMILES | Activity (Mus musculus [1]) | Activity (Mus musculus [2]) | Activity (Mus musculus [3]) [g] | Activity (Mus musculus [4]) | Activity (Mus musculus [5]) | Activity (Mus musculus [6]) [mg/dL] | Activity (Mus musculus [7]) | Activity (Mus musculus [8]) | Activity (Mus musculus [9]) | Activity (Mus musculus [10]) | Activity (Mus musculus [11]) | Activity (Mus musculus [12]) [mg/dL] | Activity (Mus musculus [13]) | Activity (Mus musculus [14]) | Activity (Mus musculus [15]) [g] | Activity (Mus musculus [16]) [g] | Activity (Mus musculus [17]) [g] | Activity (Mus musculus [18]) | bioavailability [19] [%] | logP [20] |
| --- | --- | --- | --- | --- | --- | --- | --- | --- | --- | --- | --- | --- | --- | --- | --- | --- | --- | --- | --- | --- |
| COCCOCCOCCOCCO[C@H]1CC[C@@]2(C)C(=CC[C@H]3[C@@H]4C[C@@H]5O[C@]6(CC[C@@H](C)CO6)[C@@H](C)[C@@H]5[C@@]4(C)CC[C@@H]32)C1 | Active | Active | 32.55 | Active | Active | 501.6 | Active | 565.56 mg/dL | Active | 522.18 mg/dL | Active | 582.8 | Active | Active | 30.5 | 37.6 | 33.72 | Active |  |  |
| C[C@@H]1CC[C@@]2(OC1)O[C@H]1C[C@H]3[C@@H]4CC=C5C[C@@H](O[C@@H]6O[C@H](CO)[C@@H](O[C@@H]7O[C@@H](C)[C@H](O)[C@@H](O)[C@H]7O)[C@H](O)[C@H]6O[C@@H]6O[C@@H](C)[C@H](O)[C@@H](O)[C@H]6O)CC[C@]5(C)[C@H]4CC[C@]3(C)[C@H]1[C@@H]2C [DIOSCIN] |  |  |  |  |  |  |  |  |  |  |  |  |  |  |  |  |  |  | 0.2 |  |
| C[C@@H]1CC[C@@]2(OC1)O[C@H]1C[C@H]3[C@@H]4CC=C5C[C@@H](O)CC[C@]5(C)[C@H]4CC[C@]3(C)[C@H]1[C@@H]2C [DISOGENIN] |  |  | 33.67 |  |  | 598 |  | >=600 mg/dl |  | >=600 mg/dl |  | 574.17 |  |  | 32.83 | 38.67 | 38.33 |  |  | 5.7 |
| C[C@@H]1CC[C@@]2(OC1)O[C@H]1C[C@H]3[C@@H]4CC=C5C[C@@H](O[C@@H]6O[C@H](CO)[C@@H](O)[C@H](O)[C@H]6O)CC[C@]5(C)[C@H]4CC[C@]3(C)[C@H]1[C@@H]2C [DISOGLUSIDE] | Active | Active | 31.58 |  |  | 592.33 | Active | >=600 mg/dl |  | 583.55 mg/dL | Active | 571.75 |  |  | 33.17 | 34.92 | 33.39 |  |  |  |
